Assay results published in patent publication US12661353B2, “SPT5 inhibitors and uses thereof” (Yeda Research and Development Co. Ltd., priority 2020, dated 2026).

Assays:
mutant (Q111) Htt = test: Newly synthesized Htt transcripts, 4sU metabolic labeling, Q111 cells; type: cell-based, mouse; settings: 4sU for 2 hours
Method: Metabolic labeling of newly synthesized RNA with 4-thiouridine (4sU)—STHdh Q111 and STHdh Q7 cells (collected from 10 cm dishes) were treated for 30 minutes with DMSO (vehicle control) or the tested SPI compound (e.g., SPJ-21). Following, 4-thiouridine (4sU, 150 μM final concentration) was added for additional 2 hours. The labeling was terminated by removing the 4sU-containing medium and washing the cells 3 times with phosphate-buffered saline (PBS). Total RNA was extracted as described above. […]
Huntington's disease (HD) is an inherited genetic disorder caused by expansion trinucleotide CAG repeats (36 and higher) encoding glutamine (Q) in the huntingtin (Htt) gene. […] The two cell lines were treated for 48 hours with the identified SPIs and following the levels of Htt mRNA were determined. […] Moreover, the levels measured from the second exon relative to the first were fairly higher in Q7 compared to Q111 and this small difference was kept all along the gene. […]
In assays conducted for showing that the selective effect on mutant Htt is at the transcription level, the cells were metabolically labeled with 4-thio-uridine (4sU) for 2 hours in the presence of DMSO of the indicated SPI analogs. […] Newly synthesized Htt transcript levels were determined by RT-qPCR.

[1] = test system: TNF-α-induced genes / expressed genes; test: RNA-seq of 4sU-labeled newly synthesized RNA, with or without TNFα; type: cell-based, human; settings: 4sU labeling
Method: Cells treated with DMSO or SPI-21 with or without TNFα were metabolically labeled with […] and then RNA was extracted, biotinylated and the newly synthesized transcripts were isolated with streptavidin magnetic beads and subjected to RNA-Seq. Reads were mapped and differentially expressed genes were determined.
High-throughput sequencing of the total, labeled and Run-On transcripts (RNA-Seq and Gro-seq)—_The RNA-Seq libraries were prepared by the Genomics unit in The Nancy and Stephen Grand Israel National Center for Personalized Medicine (G-INCPM, Weizmann Institute of Science). Samples from 2-hour SPI treatment were prepared using in-house mRNA Seq protocol and polyA capturing and those from 24-hpur and 4sU treatments were prepared using the same protocol w/o PolyA capture (with random hexamers), and sequenced using an Illumina HiSeq 2500 system yielding about 30M SE reads of 61 bases. The GRO-seq RNA samples were reverse transcribed and amplified (15 cycles) using in-house mRNA Seq protocol w/o PolyA capture (with random hexamers) and sequenced in one lane using an Illumina HiSeq High Output (480 million reads, yielding more than 100M SE reads of 47 bases per sample). Each RNA-Seq analysis was carried out using two independent replicates.
RNA-Seq and GRO-seq Bioinformatics analysis—_For the analysis of the 24 h, 4sU and GRO-seq data, we used the RNA-Seq pipeline of UTAP (Kohen et al. 2019) to determine the differentially expressed genes. For the 2-hour data, reads were mapped to the H. sapiens GRCh38 reference genome using STAR (Dobin et al., 2013) and expression levels for each gene were quantified using htseq-count (Anders et al., 2015). Differentially expressed genes were identified using DESeq2 (Love et al., 2014). […] The reads coverage was calculated using bed files containing the desired genomic regions and orientation (awk command) and the bedtools coverage tool (Quinlan et al., 2010).
To validate that the effects of SPIs are at the transcriptional level, cellular RNA was metabolically labeled with 4-thiouridine (4sU) for 2 hours in the presence of DMSO or SPI-21 in the presence or absence of TNFα. Newly synthesized labeled RNA was then purified and subjected to RNA-seq. […] Thus, the observed reduction in TNFα activation by SPI-21 is highly specific and is a consequence of diminished transcription.

## COc1ccc(C=CC(=O)c2cc(O)ccc2O)cc1 [SPI-21]
Mutant (Q111) Htt
  levels of newly synthesized Q111 Htt: diminished
[1]; TNFα
  fraction of TNF-α-induced genes downregulated: 61%
  number of TNF-α-induced genes (of 467) downregulated: 285 genes
[1]; basal conditions
  fraction of expressed genes downregulated: 2.2%
  number of expressed genes (of 13,890) downregulated: 301 genes
